Measured values taken from PMC10816640, “Discovery of Novel Diphenyl Acrylonitrile Derivatives That Promote Adult Rats’ Hippocampal Neurogenesis” (International Journal of Molecular Sciences, 2024).
“Also recorded” adds a separate entry of the source.

Columns and labels:
[1] = system: newborn neural progenitor cells (differentiation into mature neurons); experiment: Differentiation stage of neurogenesis: NeuN/BrdU double staining, rats sacrificed 28 days after BrdU; type: in vivo, rat; settings: for neurogenesis-promoting activity (number of NeuN+ and BrdU+ cells), differentiation stage: nine-week-old rats (n = 4), i.p. 4.0 mg/kg, Figure 9, 4 mg/kg
From the text: (§1) Previous in vitro or in vivo studies mainly focused on stimulating the proliferation effect of the small molecules. In this study, a two-step protocol was employed. First, the stimulating function of the compounds on progenitor cells in the rodents’ hippocampi was examined with using bromodeoxyuridine (BrdU) labeling. Next, the potent compounds were further screened to ascertain their ability to promote the differentiation of neural progenitor cells, as confirmed by dual labeling of BrdU and NeuN (neuronal nuclear antigen).
The study employed a rat model, wherein nine-week-old rats were administered intraperitoneally with the compound at a dose of 4.0 mg/kg/day for 28 days and then treated with a pulse of BrdU. Instead of sacrificing the rats 24 h after the BrdU injections, the rats were sacrificed after another 28 days. The brains were then isolated and cryosectioned. Eight randomly selected slices were subjected to immunohistochemical staining. This staining enabled the co-localization of the BrdU-incorporated cells with the NeuN marker, enabling the definition of the compounds that could promote the differentiation of newborn neural progenitor cells into mature functional neurons.
(§2) The compounds were dissolved in reagent-grade soybean oil containing 10% ethanol to reach a drug concentration of 2.8 mg/mL. The rats in the experimental group received intraperitoneal injections of the compounds at a dose of 4.0 mg/kg/d for 28 consecutive days. As a control, the vehicle group was administered injections of reagent-grade soybean oil containing 10% ethanol. BrdU (Sigma-Aldrich, St. louis, MA, USA) solution, prepared in physiological saline at a concentration of 10 mg/mL, was administered to all rats on day 29. Each rat received two injections of BrdU at a dosage of 50 mg/kg, with a 2 h interval between injections. The rats were euthanized 24 h (or 28 days) after the final BrdU injection.
(§3) Two or four rats per group were anesthetized using pentobarbital sodium (70 mg/kg) and subsequently perfused with physiological saline. The brain tissue was carefully dissected and fixed in 4% paraformaldehyde at 4 °C for one week. Next, the brain tissue underwent dehydration using a phosphate-buffered saline (PBS) solution containing 20% to 30% sucrose. Finally, the brain tissue was cryosectioned into slices with a thickness of 30 μm, and eight slices were randomly selected for further analysis.
The differentiation process of NPCs was visualized through the utilization of the NeuN/BrdU double staining technique. Tissue sections were subjected to an incubation period in a blocking buffer at RT for 1 to 2 h. The specimens were exposed to a rabbit anti-NeuN antibody (diluted at 1:500, Abcam, Cambridge, MA, UK) and a primary antibody, BrdU (diluted at 1:500), overnight at 4 °C. Afterwards, the sections were treated with anti-mouse 488 and anti-rabbit TRITC secondary antibodies for 2 h at RT.
(§4) The data were presented as mean ± SEM (standard error of the mean) and visualized using GRAPHPAD PRISM 6 (Graphpad Software, La Jolla, CA, USA). Statistical analysis was conducted utilizing one-way analysis of variance (ANOVA) followed by a post hoc test. Subsequent to the statistical treatment, the observed discrepancies were determined to be statistically significant (p < 0.05).

[2] = system: progenitor cells in the rodents’ hippocampi; experiment: Proliferation stage of neurogenesis: BrdU labeling, rats sacrificed 24 h after BrdU; type: in vivo, rat; settings: i.p. 4.0 mg/kg/day for 28 days, BrdU pulse, vs vehicle; for proliferation-promoting activity (number of BrdU+ positive cells): nine-week-old rats (n = 4), Figure 8, 4 mg/kg/day
From the text: as §1
Adult rats were administered intraperitoneally with the prepared compounds at a dose of 4.0 mg/kg/day for a period of 28 days, followed by a BrdU pulse. After 24 h, the rats were sacrificed, and their brain tissues were isolated and cryosectioned. Immunohistochemical staining was performed and eight brain tissue slices were randomly selected for statistical analyzing.
Eight-week-old (or 10-week-old) SD male rats purchased from Peking University Health Science Center were acclimatized for one week at the Beijing Institute of Technology. All experimental protocols strictly adhered to the regulations governing the management of experimental animals and the animal ethics policy of the Beijing Institute of Technology.
as §2, §3
The assessment of new cell proliferation was conducted using BrdU staining. To eliminate endogenous peroxides, sections were exposed to 1% H2O2 for 30 min at RT. Cellular denaturation was achieved by treating the sections with 2 M HCl at 37 °C for 1 h, followed by rinsing in 0.1 M borate buffer (pH 8.5). Tissue sections were subjected to blocking in a solution consisting of 5% goat serum and 0.5% Triton X-100 in PBS at RT for 1–2 h. The specimens were then incubated overnight at 4 °C with a mouse primary antibody specific to BrdU (diluted at 1:500; Millipore, Billerica, MA, USA). Subsequently, the DAB kit was employed for 2 h of incubation at RT.
as §4

[3] = system: hCMEC/D3 cells; experiment: CCK-8 assay for cytotoxicity; type: cell-based; settings: hCMEC/D3 cell lines, CCK-8, 48 h incubation
Experimental: hCMEC/D3 cells were obtained from the Cell Resource Center, Peking Union Medical College (PCRC). All cells were acquired in 2023 and were maintained in culture for no more than 10 continuous passages. The cells were cultured in DMEM (11995065, Gibco, Grand Island, NY, USA) supplemented with 10% FBS (164210-50, Procell, Austin, TX, USA), 100 units of penicillin, and […] of streptomycin (PB180120, Procell).
hCMEC/D3 cells (5 × 10^3) were seeded into 96-well plates in 90 μL of DMEM medium containing 10% fetal bovine serum per well. All test compounds were formulated as 10 mM stock solutions in DMSO (final concentration ≤ 0.5%). After overnight incubation, the test compound stock solution was diluted with DMEM medium containing 10% fetal bovine serum to every target concentration, and 10 μL of each was added to each well. Three parallel experiments were set up for each compound. After incubation for 48 h, 10 μL of CCK-8 reagent was added to each well in sequence according to the manufacturer’s instructions. After incubating in a 37 °C incubator for 1–2 h, the absorbance was measured at a wavelength of 450 nm, using a wavelength of 620 nm as a reference, and detected with a ThermoScientific Multiskan FC (Thermo Fisher Scientific). The graphs are representative results, and this experiment was independently repeated three times with similar results.

| Compound | neurogenesis-promoting activity (number of NeuN+ and BrdU+ cells), differentiation stage [1] | proliferation-promoting activity (number of BrdU+ positive cells) [2] | IC50 [3] [µM] | neurogenesis-promoting activity (number of NeuN+ and BrdU+ cells, newborn neurons) ([1]; nine-week-old rats (n = 2), i.p. 4.0 mg/kg/day for 28 days, BrdU pulse, Figure 7B, 4 mg/kg/day) | proliferation-promoting activity (number of BrdU+ newborn cells) ([2]; eleven-week-old rats (n = 2), Figures 3-6, 4 mg/kg/day) |
| --- | --- | --- | --- | --- | --- |
| CC(C)C(=O)Nc1ccc(/C=C(\C#N)c2ccc3c(c2)OCO3)cc1 [32b, (Z)-N-(4-(2-(benzo[d][1, 3]dioxol-5-yl)-2-cyanovinyl)phenyl)isobutyramide] | significant neurogenesis-promoting activity; also recorded: better activity than the clinical drug NSI-189; also recorded: highest activity | significant proliferation-promoting activity; also recorded: exhibited proliferative activity | > 200 | – | – |
| CC(C)C(=O)Nc1ccc(/C(C#N)=C/c2ccc3c(c2)OCO3)cc1 [29b, (Z)-N-(4-(2-(benzo[d][1, 3]dioxol-5-yl)-1-cyanovinyl)phenyl)isobutyramide] | significant neurogenesis-promoting activity; also recorded: better activity than the clinical drug NSI-189 | significant proliferation-promoting activity; also recorded: exhibited proliferative activity | > 200 | significant neurogenesis-promoting activity; also recorded: significantly increased the number of newborn neurons | significant proliferation-promoting activity; also recorded: satisfactory activity |
